Among the data in patent publication US12479849B2, “EGFR inhibitors for the treatment of cancer” (Hoffmann-La Roche Inc., priority 2019, dated 2025) are IC50 values, retold here.

pIC50: −log10 of the molar value.

For this experiment, the target named is T1, EGFR TMLRCS (Homo sapiens, UniProt P00533, C797S/L858R/T790M).
T1 construct: host or cells: BaF3-TMLRCS (Ba/F3 cells, kept under puromycin selection)
In words: HTRF Phospho EGFR TMLRCS Assay (Cellular). The experiment is classed as cell-based. The note with it: BaF3-TMLRCS cell line, 4 hours incubation, Phospho-EGFR HTRF readout. Here is the method:
HTRF Phospho EGFR TMLRCS Assay (Cellular)
BaF3-TMLRCS cell line were obtained from Crownbio (San Diego, CA, USA). Cells were maintained at 37° C., 5% CO2 in RPMI ATCC (Gibco 31870)+2 mM Glutamine+0.5 μg/ml Puromycin supplemented with 10% fetal bovine serum (FBS) (Gibco).
Cells are transferred as above to Greiner Bio-One, Nr. 784-08 micro-titerplate at 20000 cells/well in 12.5 μl of growth medium/well after the plates had been pre-filled with 12.5 nl of DMSO solutions of the to be tested compounds (in dose response) or DMSO only. After spinning the plates at 300×g for 30 seconds the cells were incubated for 4 hours at 37 C, 5% CO2, 95% humidity. The cells were lysed by adding to the compound mix 4 μl/well of the supplemented lysis buffer (Cis-bio, Phospho-EGFR HTRF kit, 64EG1PEH), followed by incubation for 30 min at room temperature with shaking (400 rpm). The plates were then frozen and stored overnight at −80 C. On the next day and after thawing the plates, 4 μl of a mixture of anti-Phospho-EGFR Cryptate and of anti-Phospho-EGFR-d2 antibody solutions prepared in the supplied detection buffer was added to each well. The lidded plates were then incubated for 4 h at room temperature before reading the fluorescence emission at 616 and 665 nm using an Envision reader (Perkin Elmer). Data was analyzed in similar fashion as above using the normalized ratio of the 665 to 616 signals multiplied by 10000.

T1 sequence (P00533 25-1210 T790M/C797S/L858R): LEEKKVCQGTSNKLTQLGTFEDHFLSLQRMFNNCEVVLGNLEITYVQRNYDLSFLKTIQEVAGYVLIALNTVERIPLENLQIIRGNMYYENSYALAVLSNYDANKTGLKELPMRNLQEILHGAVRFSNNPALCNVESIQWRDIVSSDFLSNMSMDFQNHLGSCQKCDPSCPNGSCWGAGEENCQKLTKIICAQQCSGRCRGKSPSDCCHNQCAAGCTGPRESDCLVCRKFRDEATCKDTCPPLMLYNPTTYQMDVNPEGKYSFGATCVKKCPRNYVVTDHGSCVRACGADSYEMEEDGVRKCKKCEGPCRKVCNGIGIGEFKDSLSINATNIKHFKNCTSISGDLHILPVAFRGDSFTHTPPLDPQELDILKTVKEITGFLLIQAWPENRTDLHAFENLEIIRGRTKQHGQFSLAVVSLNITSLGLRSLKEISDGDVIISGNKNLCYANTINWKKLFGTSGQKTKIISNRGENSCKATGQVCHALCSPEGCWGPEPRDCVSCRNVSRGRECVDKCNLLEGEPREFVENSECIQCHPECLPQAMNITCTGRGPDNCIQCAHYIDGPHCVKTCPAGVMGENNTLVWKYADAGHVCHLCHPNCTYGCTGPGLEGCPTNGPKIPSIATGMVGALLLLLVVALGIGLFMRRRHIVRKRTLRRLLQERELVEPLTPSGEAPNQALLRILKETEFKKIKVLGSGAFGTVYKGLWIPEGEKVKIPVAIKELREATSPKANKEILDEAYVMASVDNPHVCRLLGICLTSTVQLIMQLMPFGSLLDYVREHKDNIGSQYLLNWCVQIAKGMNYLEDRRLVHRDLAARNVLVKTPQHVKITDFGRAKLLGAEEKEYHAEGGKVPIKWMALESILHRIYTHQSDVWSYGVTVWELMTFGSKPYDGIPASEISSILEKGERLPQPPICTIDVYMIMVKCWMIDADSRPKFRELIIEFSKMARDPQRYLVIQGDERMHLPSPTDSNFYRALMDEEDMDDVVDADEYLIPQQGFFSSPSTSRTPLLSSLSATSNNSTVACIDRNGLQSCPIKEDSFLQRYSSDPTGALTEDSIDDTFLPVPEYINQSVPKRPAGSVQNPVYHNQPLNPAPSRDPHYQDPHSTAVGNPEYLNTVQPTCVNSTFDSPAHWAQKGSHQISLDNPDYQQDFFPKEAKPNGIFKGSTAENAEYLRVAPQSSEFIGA

Regarding `O=C(Nc1nccs1)C(c1ncn2c1C[C@@H](F)C2)n1cc2c(Cl)cc(-c3ccc(OCCN4CCC(O)CC4)cc3)c(Cl)c2n1` (mixture of isomers) [Example 77, rac-2-(4,7-Dichloro-6-(4-(2-(4-hydroxypiperidin-1-yl)ethoxy)phenyl)-2H-indazol-2-yl)-2-((R)-6-fluoro-6,7-dihydro-5H-pyrrolo[1,2-c]imidazol-1-yl)-N-(thiazol-2-yl)acetamide], the negative-log IC50 (pIC50) (as a rule, the IC50 on a negative log10 scale, so that one unit is a factor of ten) was 9.00.

`CC(CCO)N1CCC(Oc2ccc(-c3cc(Cl)c4cn(C(C(=O)Nc5nccs5)c5ncn6c5C[C@@H](F)C6)nc4c3Cl)cc2)CC1` (mixture of isomers) [Example 86, 2-[4,7-Dichloro-6-[4-[[1-(3-hydroxy-1-methyl-propyl)-4-piperidyl]oxy]phenyl]indazol-2-yl]-2-[rac-(6R)-6-fluoro-6,7-dihydro-5H-pyrrolo[1,2-c]imidazol-1-yl]-N-thiazol-2-yl-acetamide]: the pIC50 is 8.22.

As for `O=C(Nc1nccs1)C(c1ncn2c1C[C@@H](F)C2)n1cc2c(Cl)cc(-c3ccc(C4CCN(C5CC(O)C5)CC4)cc3)c(Cl)c2n1` (mixture of isomers) [Example 87, rac-2-(4,7-Dichloro-6-(4-(1-(3-hydroxycyclobutyl)piperidin-4-yl)phenyl)-2H-indazol-2-yl)-2-((R)-6-fluoro-6,7-dihydro-5H-pyrrolo[1,2-c]imidazol-1-yl)-N-(thiazol-2-yl)acetamide], the negative logarithm of the IC50 (pIC50) was 8.05.

With `O=C(Nc1nccs1)C(c1ncn2c1C[C@@H](F)C2)n1cc2c(Cl)cc(-c3ccc(CN4CCC5(CC4)CC(O)C5)cc3)c(Cl)c2n1` (mixture of isomers) [Example 91, rac-2-(4,7-Dichloro-6-(4-((2-hydroxy-7-azaspiro[3.5]nonan-7-yl)methyl)phenyl)-2H-indazol-2-yl)-2-((R)-6-fluoro-6,7-dihydro-5H-pyrrolo[1,2-c]imidazol-1-yl)-N-(thiazol-2-yl)acetamide], the negative-log IC50 (pIC50) was 8.10.

As to `O=C(Nc1nccs1)C(c1ncn2c1C[C@@H](F)C2)n1cc2c(Cl)cc(-c3ccc(OCCN4CCC5(CC4)CC(O)C5)cc3)c(Cl)c2n1` (mixture of isomers) [Example 92, rac-2-(4,7-Dichloro-6-(4-(2-(2-hydroxy-7-azaspiro[3.5]nonan-7-yl)ethoxy)phenyl)-2H-indazol-2-yl)-2-((R)-6-fluoro-6,7-dihydro-5H-pyrrolo[1,2-c]imidazol-1-yl)-N-(thiazol-2-yl)acetamide], the pIC50 is 7.89.

As to `CN(Cc1ccc(-c2cc(Cl)c3cn(C(C(=O)Nc4nccs4)c4ncn5c4C[C@@H](F)C5)nc3c2Cl)cc1)C1CCC(O)CC1` (mixture of isomers) [Example 94, rac-2-(4,7-Dichloro-6-(4-(((4-hydroxycyclohexyl)(methyl)amino)methyl)phenyl)-2H-indazol-2-yl)-2-((R)-6-fluoro-6,7-dihydro-5H-pyrrolo[1,2-c]imidazol-1-yl)-N-(thiazol-2-yl)acetamide], the pIC50 was 8.40.

Turning to `CN(Cc1ccc(-c2cc(Cl)c3cn(C(C(=O)Nc4nccs4)c4ncn5c4C[C@@H](F)C5)nc3c2Cl)cc1)C1CCCC(O)C1` (mixture of isomers) [Example 95, rac-2-(4,7-Dichloro-6-(4-(((3-hydroxycyclohexyl)(methyl)amino)methyl)phenyl)-2H-indazol-2-yl)-2-((R)-6-fluoro-6,7-dihydro-5H-pyrrolo[1,2-c]imidazol-1-yl)-N-(thiazolyl)acetamide], the negative logarithm of the IC50 (pIC50) is 8.22.

`CN1CCN(Cc2ccc(-c3cc(Cl)c4cn(C(C(=O)Nc5nccs5)c5ncn6c5C[C@@H](F)C6)nc4c3Cl)cc2)CC1` (mixture of isomers) [Example 96, rac-2-(4,7-Dichloro-6-(4-((4-methylpiperazin-1-yl)methyl)phenyl)-2H-indazol-2-yl)-2-((R)-6-fluoro-6,7-dihydro-5H-pyrrolo[1,2-c]imidazol-1-yl)-N-(thiazol-2-yl)acetamide] showed a pIC50 of 8.22.

With `CC1(O)CCN(Cc2ccc(-c3cc(Cl)c4cn(C(C(=O)Nc5nccs5)c5ncn6c5C[C@@H](F)C6)nc4c3Cl)cc2)CC1` (mixture of isomers) [Example 97, rac-2-(4,7-Dichloro-6-(4-((4-hydroxy-4-methylpiperidin-1-yl)methyl)phenyl)-2H-indazol-2-yl)-2-((R)-6-fluoro-6,7-dihydro-5H-pyrrolo[1,2-c]imidazol-1-yl)-N-(thiazol-2-yl)acetamide], the pIC50 was 8.30.

`COC1CCN(Cc2ccc(-c3cc(Cl)c4cn(C(C(=O)Nc5nccs5)c5ncn6c5C[C@@H](F)C6)nc4c3Cl)cc2)C1` (mixture of isomers) [Example 98, rac-2-(4,7-Dichloro-6-(4-((3-methoxypyrrolidin-1-yl)methyl)phenyl)-2H-indazol-2-yl)-2-((R)-6-fluoro-6,7-dihydro-5H-pyrrolo[1,2-c]imidazol-1-yl)-N-(thiazol-2-yl)acetamide] had a pIC50 of 8.22.

With `O=C(Nc1nccs1)C(c1ncn2c1C[C@@H](F)C2)n1cc2c(Cl)cc(-c3ccc(CN4C[C@H]5COC[C@H]5C4)cc3)c(Cl)c2n1` (mixture of isomers) [Example 99, rac-2-(4,7-Dichloro-6-(4-0(3aR,6aS)-tetrahydro-1H-furo[3,4-c]pyrrol-5(3H)-yl)methyl)phenyl)-2H-indazol-2-yl)-2-((R)-6-fluoro-6,7-dihydro-5H-pyrrolo[1,2-c]imidazol-1-yl)-N-(thiazol-2-yl)acetamide], the pIC50 is 8.22.

With `CC(O)C1CN(CCc2ccc(-c3cc(Cl)c4cn(C(C(=O)Nc5nccs5)c5ncn6c5C[C@@H](F)C6)nc4c3Cl)cc2)C1` (mixture of isomers) [Example 100, rac-2-(4,7-Dichloro-6-(4-(2-(3-(1-hydroxyethyl)azetidin-1-yl)ethyl)phenyl)-2H-indazol-2-yl)-2-((R)-6-fluoro-6,7-dihydro-5H-pyrrolo[1,2-c]imidazol-1-yl)-N-(thiazol-2-yl)acetamide], the pIC50 was 7.92.

On to `COCCNCCc1ccc(-c2cc(Cl)c3cn(C(C(=O)Nc4nccs4)c4ncn5c4C[C@@H](F)C5)nc3c2Cl)cc1` (mixture of isomers) [Example 101, rac-2-(4,7-Dichloro-6-(4-(24(2-methoxyethyl)amino)ethyl)phenyl)-2H-indazol-2-yl)-2-((R)-6-fluoro-6,7-dihydro-5H-pyrrolo[1,2-c]imidazol-1-yl)-N-(thiazol-2-yl)acetamide], for which the negative-log IC50 (pIC50) is 8.00.

On to `O=C(Nc1nccs1)C(c1ncn2c1C[C@@H](F)C2)n1cc2c(Cl)cc(-c3ccc(N4CCOCC4)cc3)c(C(F)F)c2n1` (mixture of isomers) [Example 106, rac-2-(4-Chloro-7-(difluoromethyl)-6-(4-morpholinophenyl)-2H-indazol-2-yl)-2-((R)-6-fluoro-6,7-dihydro-5H-pyrrolo[1,2-c]imidazol-1-yl)-N-(thiazol-2-yl)acetamide], for which the negative logarithm of the IC50 (pIC50) is 8.10.

The compound `CCN1CCC(c2ccc(-c3cc(Cl)c4cn(C(C(=O)Nc5nccs5)c5ncn6c5C[C@@H](F)C6)nc4c3)cc2)CC1` (mixture of isomers) [Example 117, rac-2-(4-Chloro-6-(4-(1-ethylpiperidin-4-yl)phenyl)-2H-indazol-2-yl)-2-((R)-6-fluoro-6,7-dihydro-5H-pyrrolo[1,2-c]imidazol-1-yl)-N-(thiazol-2-yl)acetamide] had a pIC50 of 8.05.

For `Cc1cc(-c2ccc(C3CCN(CC(C)F)CC3)cc2)c(Cl)c2nn(C(C(=O)Nc3nccs3)c3ncn4c3C[C@@H](F)C4)cc12` (mixture of isomers) [Example 131, rac-2-(7-Chloro-6-(4-(1-(2-fluoropropyl)piperidin-4-yl)phenyl)-4-methyl-2H-indazol-2-yl)-2-((R)-6-fluoro-6,7-dihydro-5H-pyrrolo[1,2-c]imidazol-1-yl)-N-(thiazol-2-yl)acetamide], the pIC50 is 6.72.

In turn, `Cc1cc(-c2ccc(OCCN3CCC(CO)CC3)cc2)c(Cl)c2nn(C(C(=O)Nc3nccs3)c3ncn4c3C[C@@H](F)C4)cc12` (mixture of isomers) [Example 132, rac-2-(7-Chloro-6-(4-(2-(4-(hydroxymethyl)piperidin-1-yl)ethoxy)phenyl)-4-methyl-2H-indazol-2-yl)-2-((R)-6-fluoro-6,7-dihydro-5H-pyrrolo[1,2-c]imidazol-1-yl)-N-(thiazol-2-yl)acetamide] had a pIC50 of 8.15.

On to `CCN1CC[C@H](c2ccc(-c3cc(Cl)c4cn(C(C(=O)Nc5nccs5)c5ncn6c5C[C@@H](F)C6)nc4c3Cl)cc2)[C@@H](F)C1` (single isomer, unassigned) [Example 37], for which the pIC50 is 8.00.

With `O=C(Nc1nccs1)C(c1ncn2c1C[C@@H](F)C2)n1cc2c(Cl)cc(-c3ccc([C@@H]4CCN(CCO)C[C@H]4F)cc3)c(Cl)c2n1` (single isomer, unassigned) [Example 54], the negative logarithm of the IC50 (pIC50) was 8.30.

As for `O=C(Nc1nccs1)C(c1ncn2c1C[C@@H](F)C2)n1cc2c(Cl)cc(-c3ccc([C@@H]4CCN(C5CC(O)C5)C[C@H]4F)cc3)c(Cl)c2n1` (single isomer, unassigned) [Example 55], the pIC50 is 8.30.

`CCN1CC[C@@H](c2ccc(-c3cc(C)c4cn(C(C(=O)Nc5nccs5)c5ncn6c5C[C@@H](F)C6)nc4c3C)cc2)[C@H](F)C1` (single isomer, unassigned) [Example 119] showed a pIC50 of 7.85.

`CCN1CC[C@@H](c2ccc(-c3cc(C)c4cn(C(C(=O)Nc5nccs5)c5ncn6c5CCC6)nc4c3Cl)cc2)[C@H](F)C1` (single isomer, unassigned) [Example 127] had a pIC50 of 8.05.
